# Measurements reported in patent US7494754B2, “Electrophotographic photoreceptor containing asymmetric naphthalenetetracarboxylic acid diimide derivatives and electrophotographic imaging apparatus employing the same” (Samsung Electronics Co., Ltd., priority 2005, dated 2009).
# Assay: Solubility test in organic solvents
# Assay type: physicochemical
# Conditions: for Methylene chloride (g): amount of solvent required to completely dissolve 1 g of the tested compound / Tetrahydrofuran (g): amount of solvent required to completely dissolve 1 g of the tested compound: room temperature, 1 g compound
# Description: 1 g of a compound to be tested was poured into a test tube with stirring at room temperature and solvents listed in Table 1 were slowly added drop by drop. The amounts of the solvents required to completely dissolve 1 g of the tested compound were measured.
SMILES,Methylene chloride (g): amount of solvent required to completely dissolve 1 g of the tested compound [g],Tetrahydrofuran (g): amount of solvent required to completely dissolve 1 g of the tested compound [g],solubility in organic solvents (in words)
CCCCN1C(=O)c2ccc3c4c(ccc(c24)C1=O)C(=O)N(C(C)c1ccccc1)C3=O (stereo not shown) [Compound (4)],1.5,12,
CCCCN1C(=O)c2ccc3c4c(ccc(c24)C1=O)C(=O)N(CCCC)C3=O [Compound (40)],17,74,very poor solubility
CCCCN1C(=O)c2ccc3c4c(ccc(c24)C1=O)C(=O)N(C(CC)c1ccccc1)C3=O (stereo not shown) [Compound (12)],1.3,7,
CC(c1ccccc1)N1C(=O)c2ccc3c4c(ccc(c24)C1=O)C(=O)N(C(C)c1ccccc1)C3=O (stereo not shown) [Compound (30)],3.5,50,poor solubility
